Positions count from the first letter of the chain named. The source made the active and inactive calls. The calls are words filed in the database; no cut-off is given here.

For assay [1], the species on record is Rattus norvegicus. The assay is described as follows: Inhibition of rat liver alpha-glucosidase 2 assessed as conversion of Glc2Man7GlcNAc2 to Man7GlcNAc2 at 100 uM after 1.25 hrs.
Assay [2] relates to HL-60. The assay is described as follows: Inhibition of endoplasmic reticulum alpha-glucosidase 1 in human HL-60 cells assessed as free oligosaccharide level at 50 uM after 24 hrs. Type of assay: cell-based.
The target in assay [3] is T1, Neutral alpha-glucosidase AB (Homo sapiens) (UniProt Q14697).
T1 sequence (whole entry): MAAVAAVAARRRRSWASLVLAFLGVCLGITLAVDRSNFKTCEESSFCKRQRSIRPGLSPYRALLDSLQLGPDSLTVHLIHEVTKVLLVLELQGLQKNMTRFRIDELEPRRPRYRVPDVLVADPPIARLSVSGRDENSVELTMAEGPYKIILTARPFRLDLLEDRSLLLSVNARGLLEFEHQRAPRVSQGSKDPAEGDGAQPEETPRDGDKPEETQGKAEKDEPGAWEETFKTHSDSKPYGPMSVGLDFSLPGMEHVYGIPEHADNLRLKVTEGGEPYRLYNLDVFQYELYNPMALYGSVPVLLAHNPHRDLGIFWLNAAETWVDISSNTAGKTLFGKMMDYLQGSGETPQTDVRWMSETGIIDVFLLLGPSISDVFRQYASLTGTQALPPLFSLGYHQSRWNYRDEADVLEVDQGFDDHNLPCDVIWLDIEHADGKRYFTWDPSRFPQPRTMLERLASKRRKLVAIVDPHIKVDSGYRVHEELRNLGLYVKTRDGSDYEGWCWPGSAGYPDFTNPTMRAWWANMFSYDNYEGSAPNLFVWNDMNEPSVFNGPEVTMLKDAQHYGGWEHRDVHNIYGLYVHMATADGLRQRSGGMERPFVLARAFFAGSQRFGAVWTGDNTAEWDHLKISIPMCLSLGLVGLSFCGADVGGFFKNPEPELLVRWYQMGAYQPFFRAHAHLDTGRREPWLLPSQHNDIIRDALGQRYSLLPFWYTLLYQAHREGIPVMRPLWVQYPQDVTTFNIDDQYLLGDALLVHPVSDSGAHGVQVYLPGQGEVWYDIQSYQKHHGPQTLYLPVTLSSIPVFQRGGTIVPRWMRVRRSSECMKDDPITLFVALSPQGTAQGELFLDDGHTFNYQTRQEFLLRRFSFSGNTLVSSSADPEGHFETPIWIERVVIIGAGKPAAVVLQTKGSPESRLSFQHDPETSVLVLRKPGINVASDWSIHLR
As to the kind of experiment: Inhibition of endoplasmic reticulum alpha-glucosidase 2 in human HL-60 cells assessed as free oligosaccharide level at 50 uM after 24 hrs. In kind it is cell-based.

The species named for assay [4] is Rattus norvegicus. As to the kind of experiment: Inhibition of rat liver alpha-glucosidase 2 assessed as conversion of Glc2Man7GlcNAc2 to Glc1Man7GlcNAc2 at 100 uM after 1.25 hrs.
Assay [5] addresses T2, Lysosomal acid glucosylceramidase (Homo sapiens, UniProt P04062).
T2 sequence (P04062 whole entry): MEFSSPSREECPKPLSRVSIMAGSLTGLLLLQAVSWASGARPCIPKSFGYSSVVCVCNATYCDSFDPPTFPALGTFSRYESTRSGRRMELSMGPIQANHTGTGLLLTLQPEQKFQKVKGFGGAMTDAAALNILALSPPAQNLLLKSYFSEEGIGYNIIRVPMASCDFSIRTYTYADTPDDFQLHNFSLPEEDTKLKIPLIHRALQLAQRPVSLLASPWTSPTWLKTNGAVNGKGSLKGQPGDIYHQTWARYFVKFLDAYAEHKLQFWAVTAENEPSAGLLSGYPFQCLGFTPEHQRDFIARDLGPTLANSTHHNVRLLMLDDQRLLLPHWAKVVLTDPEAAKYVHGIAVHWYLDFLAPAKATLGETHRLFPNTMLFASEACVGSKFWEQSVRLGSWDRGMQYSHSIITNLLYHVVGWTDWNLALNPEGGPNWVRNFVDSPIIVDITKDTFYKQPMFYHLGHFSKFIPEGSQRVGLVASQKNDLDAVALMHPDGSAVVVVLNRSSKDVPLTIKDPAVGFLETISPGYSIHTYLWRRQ
The assay is described as follows: Inhibition of partially purified human placental beta-glucocerebrosidase after 15 to 60 mins.

For assay [6], the system named is T3, Lysosomal acid glucosylceramidase (Homo sapiens), P04062 [N409S].
T3 sequence (whole entry): T2 sequence (P04062 whole entry) with N409S
The assay is described as follows: Activation of beta-glucocerebrosidase in human N370S cells assessed as increase of residual activity at 0.05 to 100 uM after 3 days. In kind it is cell-based.

The species named for assay [7] is Rattus norvegicus. As to the kind of experiment: Inhibition of rat liver alpha-glucosidase 2 assessed as conversion of Glc2Man7GlcNAc2 to Glc1Man7GlcNAc2 at 500 uM after 1.25 hrs.
The target of assay [8] is T1, Neutral alpha-glucosidase AB (Homo sapiens). The assay is described as follows: Inhibition of endoplasmic reticulum alpha-glucosidase 2 in human HL-60 cells assessed as free oligosaccharide level at 500 uM after 24 hrs. In kind it is cell-based.
Assay [9] concerns T3, Lysosomal acid glucosylceramidase (Homo sapiens), P04062 [N409S]. The assay is described as follows: Activation of beta-glucocerebrosidase in human N370S cells assessed as increase of residual activity at 0.05 to 100 uM after 3 days relative to control. In kind it is cell-based.
Assay [10] deals with HL-60. As to the kind of experiment: Inhibition of endoplasmic reticulum alpha-glucosidase 1 in human HL-60 cells assessed as free oligosaccharide level at 500 uM after 24 hrs. In kind it is cell-based.
For assay [11], the species on record is Rattus norvegicus. As to the kind of experiment: Inhibition of rat liver alpha-glucosidase 2 assessed as conversion of Glc2Man7GlcNAc2 to Man7GlcNAc2 at 500 uM after 1.25 hrs.

`CCCCN1C[C@H](O)[C@@H](O)[C@H](O)[C@H]1CO`: the inhibition result (in the assay listed under Rattus norvegicus [1]; in the assay on HL-60 [2]; in assay [3]; in the assay filed under Rattus norvegicus [4]) was “Active” throughout.
By IC50 is commonly meant the concentration that gives 50% inhibition. A low value points to greater potency in that assay. The compound `O[C@@H]1[C@@H](O)[C@H](O)[C@]2(O)CC[C@H]1N2` [CALYSTEGINE B2] had an IC50 in [5] of 1 µM.
`CCCCCCCCCN1[C@@H]2CC[C@@]1(O)[C@@H](O)[C@H](O)[C@H]2CO` gave an IC50 in assay [5] of 60 µM. In assay [6], the result was inactive.
For the compound `CCCCN1[C@@H]2CC[C@@]1(O)[C@@H](O)[C@H](O)[C@H]2CO`, in assay [5], 100 µM corresponded to half-maximal inhibition (IC50). Also, the outcome in assay [6] was inactive.
Turning to `OC[C@@H]1[C@@H](O)[C@H](O)[C@]2(O)CC[C@H]1N2` [NOEUROSTEGINE], the inhibition entry (in the assay filed under Rattus norvegicus [7]; in assay [8]; with HL-60 [10]; in the assay listed under Rattus norvegicus [11]) was “inactive” throughout. This compound returned an IC50 in assay [5] of 0.4 µM. The fold change (FC) in assay [9] amounted to 1.82.

The values are drawn from ChEMBL document CHEMBL1681653, “Synthesis of N-alkylated noeurostegines and evaluation of their potential as treatment for Gaucher's disease” (Bioorg Med Chem Lett, 2011).
